From patent US20060069132A1, “Azolecarboxamide herbicides” (priority 2004, published 2006)

Columns and labels:
barnyardgrass = test: Test B pre-/postemergence herbicide test; format: in vivo, Echinochloa crus-galli; conditions: for Barnyardgrass plant response rating: postemergence, visual rating
How it was run: (§1)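 Species tested were Echinochloa crus-galli, Ipomoea coccinea, Xanthium strumarium and Oryza sativa, treated both before emergence and at the 1- to 4-leaf stage; rice and barnyardgrass were also tested under flooding at 2 leaves. Greenhouse incubation lasted 13–15 days before visual 0–100 scoring.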

Surinam grass = test: Test B pre-/postemergence herbicide test; format: in vivo, Urochloa decumbens; conditions: for Surinam Grass plant response rating: postemergence, visual rating
How it was run: (§2)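 Seeds were planted and treated preemergence with compounds formulated in a non-phytotoxic solvent mixture containing surfactant, while plants at the 1- to 4-leaf stage (2 to 18 cm) received postemergence sprays. Flooded paddy plants were grown to the 2-leaf stage. After 13 to 15 days in a greenhouse, injury was visually rated 0–100 against untreated controls.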

corn = test: Test B pre-/postemergence herbicide test; format: in vivo, Zea mays
How it was run: as §2

large crabgrass = test: Test B pre-/postemergence herbicide test; format: in vivo, Digitaria sanguinalis; conditions: for Crabgrass, Large plant response rating: postemergence, visual rating
How it was run: as §2

giant foxtail = test: Test B pre-/postemergence herbicide test; format: in vivo, Setaria faberi; conditions: for Foxtail, Giant plant response rating: postemergence, visual rating
How it was run: as §2

lambsquarters = test: Test B pre-/postemergence herbicide test; format: in vivo, Chenopodium album; conditions: for Lambsquarters plant response rating: postemergence, visual rating
How it was run: as §2

morningglory = test: Test B pre-/postemergence herbicide test; format: in vivo, Ipomoea coccinea
How it was run: as §1

pigweed = test: Test B pre-/postemergence herbicide test; format: in vivo, Amaranthus retroflexus; conditions: for Pigweed plant response rating: postemergence, visual rating
How it was run: as §2

velvetleaf = test: Test B pre-/postemergence herbicide test; format: in vivo, Abutilon theophrasti; conditions: for Velvetleaf plant response rating: postemergence, visual rating
How it was run: as §2

blackgrass = test: Test B postemergence herbicide test; format: in vivo, Alopecurus myosuroides; conditions: scale 0 (no effect) to 100 (complete control); for Plant response rating, Blackgrass: Postemergence, visual rating after 13 to 15 days; for Blackgrass plant response rating: postemergence, visual rating
How it was run: (§3)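 Plants grow to 1- to 4-leaf stage (2–18 cm) for postemergence spraying, or to 2-leaf stage for the paddy test. Formulated compound is applied. Greenhouse holding lasts 13–15 days. Response is scored visually relative to controls, 0 no effect to 100 complete control; a dash means no result.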

wheat = test: Test B postemergence herbicide test; format: in vivo, Triticum aestivum; set-up: key to Wheat plant response rating: 0 = no effect, 100 = complete control; conditions: scale 0 (no effect) to 100 (complete control); for Plant response rating, Wheat: Postemergence, visual rating after 13 to 15 days; for Wheat plant response rating: postemergence, visual rating
How it was run: (§4)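 Treated at 2-leaf (paddy) or 1–4-leaf, 2–18 cm (postemergence); greenhouse 13–15 d; visual score vs control, 0 none to 100 complete control; dash = not tested.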

wild oat = test: Test B postemergence herbicide test; format: in vivo, Avena fatua; conditions: scale 0 (no effect) to 100 (complete control); for Plant response rating, Oat, Wild: Postemergence, visual rating after 13 to 15 days; for Oat, Wild plant response rating: postemergence, visual rating
How it was run: as §4

rice = test: Test B flooded paddy test; format: in vivo, Oryza sativa; conditions: 1000 g ai/ha, visual rating, scale 0 to 100 (0 no effect, 100 complete control), 13 to 15 days
How it was run: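 Visual ratings, 0 (no effect) to 100 (complete control), made versus controls after 13–15 d greenhouse. Paddy plants treated at 2-leaf stage; postemergence plants at 1- to 4-leaf stage, 2–18 cm tall.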

[1] = test system: small flower umbrella sedge; test: Test B flooded paddy test; format: in vivo, Cyperus difformis; conditions: 1000 g ai/ha, visual rating, scale 0 to 100 (0 no effect, 100 complete control), 13 to 15 days
How it was run: as §3

ducksalad = test: Test B flooded paddy test; format: in vivo, Heteranthera limosa; conditions: 1000 g ai/ha, visual rating, scale 0 to 100 (0 no effect, 100 complete control), 13 to 15 days
How it was run: as §3

[2] = 500 g ai/ha, visual rating 0-100, 0 no effect, 100 complete control, preemergence
[3] = Postemergence, 500 g ai/ha, visual rating after 13 to 15 days, scale 0 (no effect) to 100 (complete control)
[4] = 125 g ai/ha, scale 0 (no effect) to 100 (complete control)
[5] = preemergence, 125 g ai/ha, 0 to 100 scale, 0 is no effect, 100 is complete control
[6] = postemergence, 125 g ai/ha, visual rating, scale 0 (no effect) to 100 (complete control)
[7] = 500 g ai/ha, scale 0 (no effect) to 100 (complete control)

CCOC(=O)c1cc(NC(=O)c2cc(C(C)(C)C)nn2CC)ccc1OC [Compound 96]
100: Plant response rating, Crabgrass, Large (large crabgrass; [2]) | Plant response rating, Lambsquarters (lambsquarters; [2]) | Plant response rating, Lambsquarters (lambsquarters; [3]) | Lambsquarters plant response rating (lambsquarters; [4]) | Plant response rating, Lambsquarters (lambsquarters; [5]) | Plant response rating, Pigweed (pigweed; [2]) | Plant response rating, Pigweed (pigweed; [3]) | Plant response rating, Pigweed (pigweed; [5])
20: Surinam Grass plant response rating (Surinam grass; [4]) | Plant response rating, Surinam Grass (Surinam grass; [5]) | Plant response rating, Corn (corn; [3]) | Plant response rating, Crabgrass, Large (large crabgrass; [5]) | Plant response rating, Blackgrass (blackgrass; 500 g ai/ha) | Plant response rating, Wheat (wheat; 500 g ai/ha) | Plant response rating, Oat, Wild (wild oat; 500 g ai/ha) | Oat, Wild plant response rating (wild oat; 125 g ai/ha)
40: Plant response rating, Corn (corn; [5]) | Crabgrass, Large plant response rating (large crabgrass; [4])
60: Plant response rating, Foxtail, Giant (giant foxtail; [5])
70: Plant response rating, Barnyardgrass (barnyardgrass; [5]) | Plant response rating, Corn (corn; [2]) | Pigweed plant response rating (pigweed; [4]) | Velvetleaf plant response rating (velvetleaf; [4]) | Rice plant response rating (rice)
50: Plant response rating, Barnyardgrass (barnyardgrass; [3]) | Plant response rating, Crabgrass, Large (large crabgrass; [3]) | Plant response rating, Foxtail, Giant (giant foxtail; [3]) | Plant response rating, Velvetleaf (velvetleaf; [5])
80: Plant response rating, Surinam Grass (Surinam grass; [2]) | Plant response rating, Velvetleaf (velvetleaf; [3])
10: Corn plant response rating (corn; [6]) | Plant response rating, Morningglory (morningglory; [2]) | Wheat plant response rating (wheat; 125 g ai/ha)
0: Barnyardgrass plant response rating (barnyardgrass; [4]) | Plant response rating, Morningglory (morningglory; [3]) | Morningglory plant response rating (morningglory; [6]) | Plant response rating, Morningglory (morningglory; [5]) | Blackgrass plant response rating (blackgrass; 125 g ai/ha)
30: Plant response rating, Surinam Grass (Surinam grass; [3]) | Foxtail, Giant plant response rating (giant foxtail; [4])
90: Plant response rating, Barnyardgrass (barnyardgrass; [2]) | Plant response rating, Foxtail, Giant (giant foxtail; [2]) | Plant response rating, Velvetleaf (velvetleaf; [2]) | Sedge, Umbrella plant response rating [1] | Ducksalad plant response rating (ducksalad)

C=Cn1nc(C(C)(C)C)cc1C(=O)Nc1cccc(C(C)=NO)c1 [Compound 114]
40: Plant response rating, Crabgrass, Large (large crabgrass; [3]) | Plant response rating, Velvetleaf (velvetleaf; [5])
50: Plant response rating, Barnyardgrass (barnyardgrass; [5]) | Plant response rating, Foxtail, Giant (giant foxtail; [5]) | Velvetleaf plant response rating (velvetleaf; [4]) | Rice plant response rating (rice)
60: Plant response rating, Velvetleaf (velvetleaf; [2]) | Plant response rating, Velvetleaf (velvetleaf; [3])
80: Plant response rating, Barnyardgrass (barnyardgrass; [2]) | Lambsquarters plant response rating (lambsquarters; [4]) | Plant response rating, Pigweed (pigweed; [5]) | Ducksalad plant response rating (ducksalad)
90: Plant response rating, Crabgrass, Large (large crabgrass; [5]) | Plant response rating, Foxtail, Giant (giant foxtail; [2]) | Plant response rating, Lambsquarters (lambsquarters; [3]) | Pigweed plant response rating (pigweed; [4]) | Sedge, Umbrella plant response rating [1]
30: Plant response rating, Barnyardgrass (barnyardgrass; [3]) | Plant response rating, Surinam Grass (Surinam grass; [2]) | Crabgrass, Large plant response rating (large crabgrass; [4]) | Plant response rating, Foxtail, Giant (giant foxtail; [3]) | Foxtail, Giant plant response rating (giant foxtail; [4]) | Plant response rating, Blackgrass (blackgrass; 500 g ai/ha)
0: Plant response rating, Corn (corn; [5])
10: Surinam Grass plant response rating (Surinam grass; [4]) | Plant response rating, Corn (corn; [2]) | Plant response rating, Morningglory (morningglory; [5]) | Blackgrass plant response rating (blackgrass; 125 g ai/ha) | Plant response rating, Oat, Wild (wild oat; 500 g ai/ha) | Oat, Wild plant response rating (wild oat; 125 g ai/ha)
100: Plant response rating, Crabgrass, Large (large crabgrass; [2]) | Plant response rating, Lambsquarters (lambsquarters; [2]) | Plant response rating, Lambsquarters (lambsquarters; [5]) | Plant response rating, Pigweed (pigweed; [2]) | Plant response rating, Pigweed (pigweed; [3])
20: Barnyardgrass plant response rating (barnyardgrass; [4]) | Plant response rating, Surinam Grass (Surinam grass; [3]) | Plant response rating, Surinam Grass (Surinam grass; [5]) | Plant response rating, Wheat (wheat; 500 g ai/ha) | Wheat plant response rating (wheat; 125 g ai/ha)

CC(=NO)c1cccc(NC(=O)c2cc(C(C)(C)C)nn2CCF)c1 [Compound 115]
10: Barnyardgrass plant response rating (barnyardgrass; [4]) | Crabgrass, Large plant response rating (large crabgrass; [4]) | Blackgrass plant response rating (blackgrass; 125 g ai/ha) | Oat, Wild plant response rating (wild oat; 125 g ai/ha)
0: Plant response rating, Corn (corn; [5])
60: Plant response rating, Surinam Grass (Surinam grass; [3]) | Surinam Grass plant response rating (Surinam grass; [4]) | Velvetleaf plant response rating (velvetleaf; [4]) | Rice plant response rating (rice)
100: Plant response rating, Barnyardgrass (barnyardgrass; [2]) | Plant response rating, Crabgrass, Large (large crabgrass; [2]) | Plant response rating, Foxtail, Giant (giant foxtail; [2]) | Plant response rating, Lambsquarters (lambsquarters; [2]) | Plant response rating, Lambsquarters (lambsquarters; [3]) | Plant response rating, Lambsquarters (lambsquarters; [5]) | Plant response rating, Pigweed (pigweed; [2]) | Plant response rating, Pigweed (pigweed; [3]) | Plant response rating, Velvetleaf (velvetleaf; [2])
30: Plant response rating, Corn (corn; [2]) | Plant response rating, Crabgrass, Large (large crabgrass; [3]) | Plant response rating, Foxtail, Giant (giant foxtail; [3]) | Plant response rating, Morningglory (morningglory; [5]) | Plant response rating, Wheat (wheat; 500 g ai/ha) | Wheat plant response rating (wheat; 125 g ai/ha) | Plant response rating, Oat, Wild (wild oat; 500 g ai/ha)
70: Plant response rating, Surinam Grass (Surinam grass; [2]) | Plant response rating, Surinam Grass (Surinam grass; [5])
50: Plant response rating, Barnyardgrass (barnyardgrass; [3])
20: Foxtail, Giant plant response rating (giant foxtail; [4]) | Plant response rating, Blackgrass (blackgrass; 500 g ai/ha)
80: Plant response rating, Barnyardgrass (barnyardgrass; [5]) | Plant response rating, Foxtail, Giant (giant foxtail; [5]) | Lambsquarters plant response rating (lambsquarters; [4]) | Pigweed plant response rating (pigweed; [4]) | Plant response rating, Pigweed (pigweed; [5]) | Plant response rating, Velvetleaf (velvetleaf; [3]) | Plant response rating, Velvetleaf (velvetleaf; [5])
90: Plant response rating, Crabgrass, Large (large crabgrass; [5]) | Plant response rating, Morningglory (morningglory; [2]) | Sedge, Umbrella plant response rating [1] | Ducksalad plant response rating (ducksalad)

C=Cn1nc(C(C)(C)C)cc1C(=O)Nc1cccc(C(C)=O)c1 [Compound 127]
30: Crabgrass, Large plant response rating (large crabgrass; [7]) | Foxtail, Giant plant response rating (giant foxtail; [7]) | Plant response rating, Foxtail, Giant (giant foxtail; [5]) | Pigweed plant response rating (pigweed; [4])
100: Plant response rating, Crabgrass, Large (large crabgrass; [2]) | Sedge, Umbrella plant response rating [1]
0: Plant response rating, Corn (corn; [2]) | Plant response rating, Corn (corn; [5]) | Plant response rating, Lambsquarters (lambsquarters; [5]) | Plant response rating, Morningglory (morningglory; [5]) | Velvetleaf plant response rating (velvetleaf; [4]) | Wheat plant response rating (wheat; 125 g ai/ha)
90: Plant response rating, Crabgrass, Large (large crabgrass; [5]) | Ducksalad plant response rating (ducksalad)
80: Lambsquarters plant response rating (lambsquarters; [7])
60: Plant response rating, Surinam Grass (Surinam grass; [2]) | Pigweed plant response rating (pigweed; [7])
40: Plant response rating, Pigweed (pigweed; [5])
10: Barnyardgrass plant response rating (barnyardgrass; [4]) | Surinam Grass plant response rating (Surinam grass; [4]) | Surinam Grass plant response rating (Surinam grass; [7]) | Velvetleaf plant response rating (velvetleaf; [7]) | Plant response rating, Velvetleaf (velvetleaf; [5]) | Blackgrass plant response rating (blackgrass; 125 g ai/ha) | Blackgrass plant response rating (blackgrass; 500 g ai/ha) | Wheat plant response rating (wheat; 500 g ai/ha) | Oat, Wild plant response rating (wild oat; 125 g ai/ha) | Oat, Wild plant response rating (wild oat; 500 g ai/ha)
70: Plant response rating, Barnyardgrass (barnyardgrass; [2]) | Plant response rating, Foxtail, Giant (giant foxtail; [2]) | Plant response rating, Lambsquarters (lambsquarters; [2]) | Lambsquarters plant response rating (lambsquarters; [4]) | Plant response rating, Pigweed (pigweed; [2])
20: Barnyardgrass plant response rating (barnyardgrass; [7]) | Plant response rating, Barnyardgrass (barnyardgrass; [5]) | Crabgrass, Large plant response rating (large crabgrass; [4]) | Foxtail, Giant plant response rating (giant foxtail; [4]) | Plant response rating, Velvetleaf (velvetleaf; [2])
50: Plant response rating, Surinam Grass (Surinam grass; [5]) | Rice plant response rating (rice)
